# PubChem BioAssay AID330 (DTP/NCI, 2004)
# Where “and” joins values, the source holds several entries; their conditions need not be identical. Equal values may be shown once. Toxic doses and inconclusive results are not listed.
# System: P388 leukemia ip, CD2F1 mice, survival T/C
# Assay: NCI In Vivo Anticancer Drug Screen. Data for tumor model P388 Leukemia (intraperitoneal) in CD2F1 (CDF1) mice
# Conditions: endpoint: median survival time, higher = longer survival
# In short: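 Mice carrying the transplanted tumor received test compound or vehicle. Survival was recorded in each group, and the value is the treated-group measurement divided by that of the vehicle-treated control group.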
# [1] = dose: 60.0 mg/kg/injection, schedule: Q01DX005 (ip), vehicle: saline with Tween-80
# [2] = dose: 120.0 mg/kg/injection, schedule: Q01DX005 (ip), vehicle: saline with Tween-80
# [3] = dose: 240.0 mg/kg/injection, schedule: Q01DX005 (ip), vehicle: saline with Tween-80
# [4] = dose: 50.0 mg/kg/injection, schedule: Q01DX005 (ip), vehicle: saline with Tween-80
# [5] = dose: 100.0 mg/kg/injection, schedule: Q01DX005 (ip), vehicle: saline with Tween-80
# [6] = dose: 200.0 mg/kg/injection, schedule: Q01DX005 (ip), vehicle: saline with Tween-80
# [7] = dose: 100.0 mg/kg/injection, schedule: Q01DX009 (ip), vehicle: other
# [8] = dose: 50.0 mg/kg/injection, schedule: Q01DX005 (ip), vehicle: Klucel (hydroxypropylcellulose) (HPC)
# [9] = dose: 100.0 mg/kg/injection, schedule: Q01DX005 (ip), vehicle: Klucel (hydroxypropylcellulose) (HPC)
# [10] = dose: 200.0 mg/kg/injection, schedule: Q01DX005 (ip), vehicle: Klucel (hydroxypropylcellulose) (HPC)
# [11] = dose: 100.0 mg/kg/injection, schedule: Q04DX003 (ip), vehicle: saline with Tween-80
# [12] = dose: 200.0 mg/kg/injection, schedule: Q04DX003 (ip), vehicle: saline with Tween-80
# [13] = dose: 400.0 mg/kg/injection, schedule: Q04DX003 (ip), vehicle: saline with Tween-80
# [14] = dose: 50.0 mg/kg/injection, schedule: Q01DX009 (ip), vehicle: Klucel (hydroxypropylcellulose) (HPC)
# [15] = dose: 100.0 mg/kg/injection, schedule: Q01DX009 (ip), vehicle: Klucel (hydroxypropylcellulose) (HPC)
# [16] = dose: 200.0 mg/kg/injection, schedule: Q01DX009 (ip), vehicle: Klucel (hydroxypropylcellulose) (HPC)
# [17] = dose: 100.0 mg/kg/injection, schedule: Q01DX009 (ip), vehicle: saline
# [18] = dose: 200.0 mg/kg/injection, schedule: Q01DX009 (ip), vehicle: saline
smiles,measurement,setting,value
CC1=C(C(=O)Nc2ccccc2C)C(c2ccco2)C(C(=O)Nc2ccccc2C)=C(C)N1,T/C,[1],96 % of control
same,T/C,[2],94 % of control
same,T/C,[3],97 % of control
CCOC(=O)c1nc2ccccc2c(=O)n1NC(=S)Nc1ccc(Cl)cc1,T/C,[4],93 % of control
same,T/C,[5],93 % of control
same,T/C,[6],105 % of control
O=C(O)/C=N/NS(=O)(=O)Cc1ccccc1,T/C,[7],185 % of control
same,T/C,"dose: 200.0 mg/kg/injection, schedule: Q01DX009 (ip), vehicle: other",154 % of control and 166 % of control
CCCC1OP(=O)(N2CC(C)N(P3(=O)OCC(CC)C(CCC)O3)CC2C)OCC1CC (stereo not drawn),T/C,[8],90 % of control
same,T/C,[9],101 % of control
CONS(=O)(=O)c1ccccc1C(=O)OC,T/C,[8],105 % of control
same,T/C,[9],100 % of control
same,T/C,[10],103 % of control
c1ccc(OCc2nn3c(-c4ccccc4)nnc3s2)cc1,T/C,[1],107 % of control
same,T/C,[2],94 % of control
same,T/C,[3],93 % of control
CCN(CC)S(=O)(=O)c1ccc(-c2cc(Cl)c3cc(S(=O)(=O)F)ccc3n2)cc1,T/C,[11],100 % of control
same,T/C,[12],100 % of control
same,T/C,[13],95 % of control
C/C(CCl)=N\NC1=NC(C)(CCl)P(=O)(NNc2ncccn2)S1 (stereo not drawn),T/C,"dose: 3.75 mg/kg/injection, schedule: Q01DX005 (ip), vehicle: saline",104 % of control
same,T/C,"dose: 7.5 mg/kg/injection, schedule: Q01DX005 (ip), vehicle: saline",106 % of control
same,T/C,"dose: 15.0 mg/kg/injection, schedule: Q01DX005 (ip), vehicle: saline",100 % of control and 113 % of control
same,T/C,"dose: 30.0 mg/kg/injection, schedule: Q01DX005 (ip), vehicle: saline",106 % of control and 113 % of control and 97 % of control
same,T/C,"dose: 60.0 mg/kg/injection, schedule: Q01DX005 (ip), vehicle: saline",105 % of control and 106 % of control and 107 % of control
same,T/C,"dose: 120.0 mg/kg/injection, schedule: Q01DX005 (ip), vehicle: saline",101 % of control
c1ccc(P2(c3ccccc3)=NSN=S=N2)cc1,T/C,[4],107 % of control
same,T/C,[5],116 % of control
same,T/C,[6],108 % of control
CO/C=C1\CC(=O)N(C)C1=O,T/C,[11],110 % of control
same,T/C,[12],97 % of control
same,T/C,[13],97 % of control
O=C1c2ccccc2C(=O)N1CCCN1CCOCCOCCN(CCCN2C(=O)c3ccccc3C2=O)CCOCCOCC1,T/C,"dose: 25.0 mg/kg/injection, schedule: Q04DX002 (ip), vehicle: saline + Tween-80 + alcohol",100 % of control
same,T/C,"dose: 50.0 mg/kg/injection, schedule: Q04DX002 (ip), vehicle: saline + Tween-80 + alcohol",104 % of control
same,T/C,"dose: 100.0 mg/kg/injection, schedule: Q04DX002 (ip), vehicle: saline + Tween-80 + alcohol",102 % of control and 95 % of control
Nc1c[nH]c2ccccc2c1=O,T/C,[14],104 % of control
same,T/C,[15],101 % of control
same,T/C,[16],100 % of control
CCOc1ccccc1N=Nc1c(C)nn(C(N)=S)c1OCC,T/C,"dose: 60.0 mg/kg/injection, schedule: Q01DX005 (ip), vehicle: Klucel (hydroxypropylcellulose) (HPC)",106 % of control
same,T/C,"dose: 120.0 mg/kg/injection, schedule: Q01DX005 (ip), vehicle: Klucel (hydroxypropylcellulose) (HPC)",116 % of control
same,T/C,"dose: 240.0 mg/kg/injection, schedule: Q01DX005 (ip), vehicle: Klucel (hydroxypropylcellulose) (HPC)",115 % of control
CCC(c1ccc(OCc2ccccc2)cc1)c1cc2c(cc1OC)OCO2 (stereo not drawn),T/C,"dose: 25.0 mg/kg/injection, schedule: Q01DX005 (ip), vehicle: distilled water + Tween-80",98 % of control
same,T/C,"dose: 50.0 mg/kg/injection, schedule: Q01DX005 (ip), vehicle: distilled water + Tween-80",92 % of control
same,T/C,"dose: 100.0 mg/kg/injection, schedule: Q01DX005 (ip), vehicle: distilled water + Tween-80",86 % of control
same,T/C,"dose: 200.0 mg/kg/injection, schedule: Q01DX005 (ip), vehicle: distilled water + Tween-80",88 % of control
CC1(C)CC2(CC(C)(C)NC(=O)N2)NC(=O)N1,T/C,[8],105 % of control
same,T/C,[9],92 % of control
same,T/C,[10],100 % of control
CCCC(=O)NNCN1C(=O)c2ccccc2C1=O,T/C,[8],89 % of control
same,T/C,[9],86 % of control
same,T/C,[10],93 % of control
Cc1ccc(S(=O)(=O)OCC(C)(C)CC#N)cc1,T/C,"dose: 100.0 mg/kg/injection, schedule: Q04DX003 (ip), vehicle: Klucel (hydroxypropylcellulose) (HPC)",96 % of control
same,T/C,"dose: 200.0 mg/kg/injection, schedule: Q04DX003 (ip), vehicle: Klucel (hydroxypropylcellulose) (HPC)",96 % of control
same,T/C,"dose: 400.0 mg/kg/injection, schedule: Q04DX003 (ip), vehicle: Klucel (hydroxypropylcellulose) (HPC)",100 % of control
CCCC[N+]1([O-])CCOCC1,T/C,"dose: 50.0 mg/kg/injection, schedule: Q01DX009 (ip), vehicle: saline",104 % of control
same,T/C,[17],100 % of control
same,T/C,[18],107 % of control
CSc1nc(SC)c2nc(SC)n(-c3ccccc3)c2n1,T/C,"dose: 3.13 mg/kg/injection, schedule: Q01DX009 (ip), vehicle: saline with Tween-80",102 % of control
same,T/C,"dose: 6.25 mg/kg/injection, schedule: Q01DX009 (ip), vehicle: saline with Tween-80",104 % of control
same,T/C,"dose: 12.5 mg/kg/injection, schedule: Q01DX009 (ip), vehicle: saline with Tween-80",101 % of control
same,T/C,"dose: 25.0 mg/kg/injection, schedule: Q01DX009 (ip), vehicle: saline with Tween-80",97 % of control
Nc1ccn([C@@H](C=O)O[C@@H](C=O)CO)c(=O)n1,T/C,"dose: 44.0 mg/kg/injection, schedule: Q04DX003 (ip), vehicle: saline",112 % of control
same,T/C,"dose: 66.0 mg/kg/injection, schedule: Q04DX003 (ip), vehicle: saline",120 % of control
same,T/C,[17],150 % of control
same,T/C,[18],180 % of control
Cc1cc2cc3c(=O)[nH]c(=O)cc-3n(CC(O)C(O)C(O)CO)c2cc1C (stereo not drawn),T/C,"dose: 12.5 mg/kg/injection, schedule: Q01DX009 (ip), vehicle: other",102 % of control
same,T/C,"dose: 25.0 mg/kg/injection, schedule: Q01DX009 (ip), vehicle: other",96 % of control
same,T/C,"dose: 50.0 mg/kg/injection, schedule: Q01DX009 (ip), vehicle: other",96 % of control
same,T/C,[7],95 % of control
COc1nc2c(ccn2C2OC(COC(C)=O)C(OC(C)=O)C(OC(C)=O)C2OC(C)=O)c(=O)n1C (stereo not drawn),T/C,[1],100 % of control
same,T/C,[2],104 % of control
same,T/C,[3],95 % of control
COc1ccc([N+](=O)[O-])c(C=O)c1OS(=O)(=O)c1ccc(C)c([N+](=O)[O-])c1,T/C,"dose: 25.0 mg/kg/injection, schedule: Q01DX009 (ip), vehicle: distilled water + Tween-80",93 % of control
same,T/C,"dose: 100.0 mg/kg/injection, schedule: Q01DX009 (ip), vehicle: distilled water + Tween-80",98 % of control
same,T/C,"dose: 200.0 mg/kg/injection, schedule: Q01DX009 (ip), vehicle: distilled water + Tween-80",90 % of control
same,T/C,"dose: 400.0 mg/kg/injection, schedule: Q01DX009 (ip), vehicle: distilled water + Tween-80",90 % of control
CCCNC(=O)CCC(NS(=O)(=O)c1ccc(NC(C)=O)cc1)C(=O)O (stereo not drawn),T/C,[8],100 % of control
same,T/C,[9],98 % of control
same,T/C,[10],100 % of control
Cc1ccc(S(=O)(=O)N(C)c2ccc(Cl)cc2C2=NCCc3ccccc32)cc1,T/C,[14],100 % of control
same,T/C,[15],101 % of control
same,T/C,[16],101 % of control
Cc1nc2c(ncn2C2OC(CO)C(O)C2O)c(=O)[nH]1 (stereo not drawn),T/C,"dose: 50.0 mg/kg/injection, schedule: Q04DX003 (ip), vehicle: saline with Tween-80",96 % of control
same,T/C,[11],101 % of control
same,T/C,[12],109 % of control
same,T/C,[13],111 % of control
[CH3][Ge]([Cl])([c]1ccccc1)[c]1cccc2ccccc12 (stereo not drawn),T/C,"dose: 100.0 mg/kg/injection, schedule: Q04DX003 (ip), vehicle: saline",102 % of control
same,T/C,"dose: 200.0 mg/kg/injection, schedule: Q04DX003 (ip), vehicle: saline",97 % of control
same,T/C,"dose: 400.0 mg/kg/injection, schedule: Q04DX003 (ip), vehicle: saline",101 % of control
C=CCC1=C(C2CO2)C(=O)c2ccccc2C1=O (stereo not drawn),T/C,"dose: 6.25 mg/kg/injection, schedule: Q01DX005 (ip), vehicle: Klucel (hydroxypropylcellulose) (HPC)",99 % of control
same,T/C,"dose: 12.5 mg/kg/injection, schedule: Q01DX005 (ip), vehicle: Klucel (hydroxypropylcellulose) (HPC)",99 % of control
O=C(/N=C1\N=Nc2c(O)c(C3(c4nc5n(c4O)/C(=N/C(=O)Nc4ccc(Cl)cc4)N=N5)Cc4ccccc4C3=O)nn21)Nc1ccc(Cl)cc1 (stereo not drawn),T/C,[1],101 % of control
same,T/C,[2],94 % of control
same,T/C,[3],94 % of control
